Experimental findings from paper PMC11941218, “Juglone-Bearing Thiopyrano[2,3-d]thiazoles Induce Apoptosis in Colorectal Adenocarcinoma Cells” (Cells, 2025) are described below.

Assay [1] has as its system Balb/c 3T3 (mouse fibroblasts). Nature of the assay: MTT assay. It counts as cell-based. As to conditions: BALB/c3T3, Balb/c 3T3, MTT, 72 h, M ± SD, n = 3. As to the method: (§1) DLD-1, HaCaT, and Balb/c 3T3 cells were maintained in DMEM, while HT-29 cells were grown in McCoy’s 5A medium with 10% FBS and 1% penicillin/streptomycin. All cell lines were incubated at 37 °C in a humidified atmosphere with 5% CO2. After detaching the cells with trypsin, they were quantified using a Scepter 3.0 automated cell counter (Millipore, Burlington, MA, USA).
(§2) The metabolic activity of cells exposed to the tested derivatives, doxorubicin, and DMSO, was assessed using an MTT assay according to the manufacturer’s protocol (Sigma-Aldrich, St. Louis, MO, USA). Adherent cells were seeded into 96-well plates (5000–10,000 cells in 100 µL of growth medium per well) and allowed to adhere overnight before treatment. For lymphocytes, activation with phytohemagglutinin-L (1 µg/mL) was performed for 24 h, after which they were seeded in 96-well plates at a density of 100,000 cells/well in RPMI-1640 medium supplemented with 20% FBS. The test substances, including Les-6547, Les-6557, and doxorubicin, were added to 100 µL of culture medium to achieve final concentrations of 0 µM, 0.1 µM, 1 µM, 2.5 µM, 10 µM, and 100 µM for all compounds, and the cells were further incubated for 24, 48, or 72 h. DMSO-treated cells served as the control. Then, 20 µL of MTT solution (5 mg/mL) was added and incubated for 2–4 h to allow formazan crystal formation. The formazan crystals were then solubilized by adding DMSO. The absorbance of formazan was measured at 570 nm using a ThermoScientific Evolution 201 UV-VIS spectrophotometer (ThermoFisher Scientific, Waltham, MA, USA). The control condition with 0.5% DMSO was considered 100% viability. The IC50 values for the compounds were determined using GraphPad Prism 8 and 9 software (GraphPad Software, Boston, MA, USA).
A general note: Tetrazolium assays rely on reduction of a dye to a coloured formazan, in cell work by metabolically active cells.

Assay [2] relates to HT-29 colorectal adenocarcinoma cells. The experiment in a line: MTT assay. The class given is cell-based. As to conditions: Homo sapiens. As to the method: as §1, §2
The test system of assay [3] is HaCaT (human keratinocytes). The experiment in a line: MTT assay. The conditions noted are these: 72 h, M ± SD, n = 3. It counts as cell-based. As for the experimental part: as §1, §2
Assay [4] relates to DLD-1 colorectal adenocarcinoma cells. Nature of the assay: Colony forming (clonogenic) assay. The class given is cell-based, human. The conditions noted are these: for inhibition of colony formation: DLD-1, 2.5 µM; for inhibition at 1 µM / IC50: Homo sapiens; for inhibition at 1 µM: DLD-1, 1 µM, read-out: inhibition of colony formation; for IC50: DLD-1, 72 h treatment, 14 days of incubation, M ± SD, n = 3. As for the experimental part:
(§3) For colony forming assay, HT-29 and DLD-1 cells were seeded in 12-well plates at a density of 500 cells in 2 mL of growth medium per well. After overnight incubation, the cells were exposed to the compounds Les-6547, Les-6557, and doxorubicin at concentrations ranging from 0.1 to 100 µM for 72 h. Following treatment, the medium was replaced with fresh medium without the compounds. After 14 days of culture, cells were rinsed with PBS and fixed with cold methanol for 10 min. Subsequently, the cells were stained with a 0.1% crystal violet solution for 10 min. After washing, the plates were allowed to dry at room temperature. Numbers of colonies were quantified using ImageJ software (version 1.5.4; National Institutes of Health, Bethesda, MD, USA). The effect of the compounds on the colony-forming capacity was calculated as a percentage of colonies relative to the untreated control group.

Assay [5] deals with HT-29 colorectal adenocarcinoma cells. Nature of the assay: Colony forming (clonogenic) assay. The class given is cell-based, human. The conditions noted are these: for inhibition of colony formation: HT-29, 2.5 µM; for inhibition at 1 µM / IC50: Homo sapiens; for inhibition at 1 µM: HT-29, 1 µM, read-out: inhibition of colony formation; for IC50: HT-29, 72 h treatment, 14 days of incubation, n = 3. As for the experimental part: as §3

The test system of assay [6] is DLD-1 colorectal adenocarcinoma cells. The experiment in a line: [^3H]-thymidine incorporation assay (DNA biosynthesis). It counts as cell-based. The conditions noted are these: Homo sapiens; DLD-1, 24 h, M ± SD, n = 3. As for the experimental part:
(§4) The anti-proliferative potential of Les-6547 and Les-6557 was analyzed using a clonogenic assay and incorporation of radioactive [^3H]-thymidine into the DNA of colorectal adenocarcinoma HT-29 and DLD-1 cell lines after 24 h of incubation with various concentrations of the tested agents.
(§5) Next, we examined the effects of the tested compounds on the proliferative activity of human colorectal adenocarcinoma cells by assessing their ability to influence DNA biosynthesis using the thymidine incorporation assay (Figure 6, Table 8). Les-6547 decreased DNA biosynthesis in DLD-1 cells to 50% at a concentration of 2.19 ± 0.39 µM.
Background: Dividing cells build labelled thymidine or BrdU into new DNA.

In assay [7] the test system is HT-29 colorectal adenocarcinoma cells. The description is as above. As to conditions: Homo sapiens; HT-29, 24 h, M ± SD, n = 3. It counts as cell-based. As for the experimental part: as §4, §5
For assay [8] the test system is unchanged. Nature of the assay: Mitochondrial membrane potential assay (JC-1, flow cytometry). The class given is cell-based, human. The conditions noted are these: HT-29, JC-1, 24 h; Les-6547 5 μM, Les-6557 10 μM. As for the experimental part: The disruption of mitochondrial membrane potential (MMP) was assessed using the JC-1 MitoScreen kit and a BD FACSCanto II flow cytometer, following the instructions provided and previously described protocols.
HT-29 cells were exposed to Les-6547 (5 µM) and Les-6557 (10 µM) for 24 h. After the treatment, the cells were washed and resuspended in 0.5 mL of buffer containing 10 μg/mL JC-1, followed by incubation for 15 min at room temperature, shielded from light.
Then, the cells were washed twice with buffer, resuspended in 300 μL of PBS, and analyzed for mitochondrial membrane potential disruption.
A general note: A flow cytometer gives signals particle by particle.

For assay [9] the test system is unchanged. Nature of the assay: Intracellular total ROS activity assay (flow cytometry). The conditions noted are these: HT-29, 24 h; control 3.8%. The class given is cell-based, human. As for the experimental part: Total reactive oxygen species (ROS) activity was assessed using an Intracellular Total ROS Activity Assay Kit. Following 24 h incubation with studied derivatives, HT-29 cells were prepared for analysis with the flow cytometer according to the protocol detailed in the literature. The cells were washed twice with cold PBS, followed by the addition of the assay buffer provided in the kit. The cells, at a concentration of 1 × 10⁶ cells/mL, were then exposed to 10 µL of Total ROS Green reagent and incubated for one hour at 37 °C in a CO2 incubator. After the incubation period, the cells were rinsed with the assay buffer. Finally, the cells were resuspended in 500 µL of assay buffer and analyzed using a BD FACSCanto II flow cytometer in conjunction with FACSDiva 6.1.3 software (both BD Biosciences Systems, San Jose, CA, USA). The BD Cytometer Setup and Tracking Beads (BD Biosciences, San Diego, CA, USA) were used for calibration.

Setting [10] is: HT-29, MTT, 24, 48 and 72 h, read-out: IC50 (range over incubation times).
Setting [11] is: HT-29, MTT, 24 h, M ± SD, n = 3, read-out: IC50.
Where [12] appears, read: HT-29, MTT, 48 h, M ± SD, n = 3, read-out: IC50.
Where [13] appears, read: HT-29, MTT, 72 h, M ± SD, n = 3, read-out: IC50.

What is called IC50 is the concentration that gives 50% inhibition. What is called inhibition is the drop in the measured response relative to a control, in per cent. As for `O=C1C2=C(C(=O)c3c(O)cccc31)C(c1cc(Cl)ccc1O)c1sc(=O)[nH]c1S2` (stereo not shown) [Les-6547], the 50% inhibitory concentration (IC50) in [1] is 31.7 ± 0.41 µM; in assay [2] (setting [10]), 4.29 to 5.72 µM; in [2] (setting [11]), 5.72 ± 0.41 µM; in [2] (setting [12]), 4.29 ± 0.5 µM; in assay [2] (setting [13]), 4.44 ± 0.35 µM; in assay [3], 89.64 ± 0.84 µM. The IC50 in assay [4] is 0.4 ± 0.06 µM; in assay [5], roughly 0.5 µM; in assay [6], 2.19 ± 0.39 µM; in assay [7], 2.21 ± 0.39 µM. The “inhibition of colony formation” value in [4] and in assay [5] was “completely inhibited colony formation” each time. For the same molecule, the inhibition at 1 µM came out at 99% in assay [4] and 100% in [5]. For the same molecule, the “Cells with decreased ΔΨm” value in [8] came out at 30.8%. Moreover, the “Cells with normal ΔΨm” value in assay [8] worked out at 70.4%. Besides, the “increase of the number of ROS-positive cells compared with the control cells” value in [9] is listed as “approximately 10 fold”.
As to `O=C1C2=C(C(=O)c3c(O)cccc31)C(c1ccc(Cl)cc1)c1sc(=O)[nH]c1S2` (stereo not shown) [Les-6557], the IC50 in assay [1] was 40.26 ± 0.35 µM; in assay [2] (setting [10]) it was 6.54 to 10.4 µM; in [2] (setting [11]), 10.4 ± 0.23 µM; in assay [2] (setting [12]), 6.54 ± 0.07 µM; in [2] (setting [13]), 9.78 ± 0.03 µM; in [3] it was 68.37 ± 0.57 µM. Also, the concentration for half-maximal inhibition (IC50) in assay [4] is 0.33 ± 0.05 µM; in assay [5], roughly 0.5 µM; in assay [6] it was 4.65 ± 0.02 µM; in assay [7] it was 2.91 ± 0.38 µM. The “inhibition of colony formation” value in assay [4] and in assay [5] was “completely inhibited colony formation” throughout. For the same molecule, the inhibition at 1 µM is 99% in assay [4] and 100% in assay [5]. Besides, in assay [8], the “Cells with decreased ΔΨm” value is given as 32.9%. In addition, in [8], the “Cells with normal ΔΨm” value worked out at 68.5%. Further, the “increase of the number of ROS-positive cells compared with the control cells” value in assay [9] is listed as “approximately 10 fold”.
